Experimental data published in patent publication US10568866B1, “Composition and its use for increasing innate immune health” (priority 2018, dated 2020).

Experiments:
Type in all cases: cell-based
[1] = tested on: RAW264.7 macrophages; test: In vitro phagocytic assay (nitroblue tetrazolium (NBT) reduction test), RAW264.7 macrophages; conditions: 5-20 μg/ml individually, 75 μg/ml mixture, 24 h, FIG. 1A
Description: RAW264.7 macrophages (5×10^6 cells/well of a 96-well plate) were cultured with different micronutrients and plant extracts (5-20 μg/ml) for 24 h at 37° C. Thereafter, 20 μl C. albicans or S. mutans (5×10^7 cells/ml in PBS) suspension, and 20 μl nitroblue tetrazolium (1.5 mg/ml of NBT in PBS) were added to each well. Wells that received PBS+DMSO were used as control. Next, cells were incubated for 3 h at 37° C., the supernatant was removed, and the adherent macrophages were rinsed with RPMI 1640. The cells were air dried before 80 μl of 2M KOH and 100 μl DMSO were added to each well. The absorbance was measured at 570 nm using the microplate reader. Percentage of NBT reduction (reflecting phagocytic activity) was calculated as following equation: Phagocytic Index=(ODsample−ODcontrol)/ODcontrol.
The assay used nitroblue tetrazolium (NBT) reduction test after treatment with different individual micronutrients and plant extracts (5-20 μg/ml) and their combination for 24 h at 37° C. PI and phagocytosis was tested using C. albicans and S. mutants. Values shown are mean±standard deviation (n=4).

[2] = tested on: IL-6; test: Pro-inflammatory IL-6 release by LPS stimulated RAW264.7 macrophages (ELISA); conditions: for comparative effectiveness in decreasing IL-6 secretion (in words): 5-20 μg/ml individually, 75 μg/ml mixture, LPS stimulated, FIG. 3
Description: The pro-inflammatory IL-6 release by RAW264.7 macrophages was assessed using the IL-6 Quantikine ELISA assay kit (R&D, Minneapolis, Minn.) according to the manufacturer's protocol. Briefly, 2×10^6 of cells were plated in 6-well plates and allowed to settle for 2-4 h, followed by incubation with different micronutrients and plant extracts (5-20 μg/ml) 24 h at 37° C. in 5% CO2 atmosphere. After the incubation period, cells were stimulated with LPS (10 ng/ml) for additional 24 h and all supernatants were collected and subjected to ELISA assay according to manufacturer's protocol. As a positive control, LPS-stimulated cells without treatment were used. All experiments were done in triplicate.
The effect of naturally-derived agents and their mixture on release of pro-inflammatory IL-6 by RAW264.7 macrophage cell line. Macrophages were pre-incubated with different micronutrients and plant extracts (5-20 μg/ml) individually and in a mixture followed by their stimulation with Lipopolysaccharide (LPS). Each column represents the mean±standard deviation (n=4).

[3] = tested on: YAC-1 cells; test: Cytotoxicity assay of natural killer (NK) cells toward target YAC-1 cells (MTT); conditions: individual compounds 5-20 μg/ml, 24 h, FIG. 2
Description: Cytotoxicity Assay of Natural Killer (NK) Cells were performed using splenic natural killer (as the effector cells) activity assay was carried out according as described by Yi et al. Carbohydr. Polym. 2012, 87:636-643. The splenocytes/splenic NK cells were plated into 96-well plates at a density of 1×10^7 cells/ml per well in a 50 μl volume, and stimulated with different micronutrients and plant extracts (5-20 μg/ml) for 24 h at 37° C. Then, YAC-1 cells (1×10^6 cells/ml) were added into all experimental wells (group) and complete medium only was placed in the other wells as the effector control. At the same time, complete medium (100 μl), containing only YAC-1 cells (1×10^6 cells/ml), was added into empty wells as the target control. […] The absorbance was measured at 570 nm using a microplate reader. Cytotoxicity of NK cell was expressed as Cytotoxic Index (percent lysis of target cells): CI=[ODT−(ODexp.−ODE)]/ODT×100], where ODT represents OD value of the target control, whereas ODexp. and ODE represent OD value of the experimental group and effector control, respectively.
Cytotoxicity of NK cells toward target YAC-1 cells in the presence of different micronutrients and plant extracts (5-20 μg/ml) used individually and in a combination for 24 h at 37° C. Cytotoxicity of NK cells was assessed by the MTT assay and expressed as the mean±standard deviation (n=4).

O=C1O[C@H]([C@@H](O)CO)C(O)=C1O [Vitamin C]
comparative effectiveness in stimulating phagocytic activity of RAW264.7 macrophages (in words) [1]: most effective individual agents
comparative effectiveness in decreasing IL-6 secretion (in words) [2]: best natural compounds

Fucoidan
comparative effectiveness on NK cell cytotoxicity (in words) [3]: two most effective individual compounds

Lipopolysaccharide [LPS]
stimulation of IL-6 secretion by exposure of RAW264.7 macrophages to LPS ([2]; LPS 10 ng/ml, 24 h, no treatment (positive control)): over 300%

O=C(O)CCCCC1CCSS1 (stereo not drawn) [Alpha lipoic acid]
comparative effectiveness in decreasing IL-6 secretion (in words) [2]: best natural compounds
